pIC50: −log10 of the molar value.
Key:
[1] = tested on: MDCK; assay: Efflux ratio of permeability from basolateral to apical over apical to basolateral side in human MDR1 transfected MDCK cells at 5 uM after 120 mins by LC-MS/MS analysis; type: ADME, cell-based, Canis lupus familiaris; conditions: dog, 2 h
[2] = Inhibition of gamma-secretase-mediated notch cleavage after 2 hrs by ELISA
[3] = Inhibition of gamma-secretase-mediated APP cleavage assessed as amyloid beta40 level after 2 hrs by ELISA
[4] = tested on: Mus musculus; assay: Neuroprotective activity in P-gp KO (MDR1 ab-/-) mouse brain assessed as reduction of amyloid beta x-40 level at 100 mg/kg, ip; type: functional; conditions: route intraperitoneal
[5] = Selectivity ratio of IC50 for gamma-secretase-mediated notch cleavage to IC50 gamma-secretase-mediated APP cleavage
[6] = tested on: Mus musculus; assay: Neuroprotective activity in wild type FVB mouse brain assessed as reduction of amyloid beta x-40 level at 100 mg/kg, ip; type: functional; conditions: route intraperitoneal

SMILES | Ratio [1] | pIC50 [2] | pIC50 [3] | Ratio IC50 [5] | inhibition in vivo at 100 mg/kg [4] | inhibition in vivo at 100 mg/kg [6]
O=C1NCCCC[C@H]1N(Cc1ccc2ncccc2c1)S(=O)(=O)c1ccc(Cl)cc1 | 1.8 | 8.40 | 8.22 | 0.6 | 62% | 20%
CC(C)(C)CNC(=O)c1ccc(CN([C@@H]2CCCCNC2=O)S(=O)(=O)c2ccc(Cl)cc2)cc1 | – | 7.26 | 7.52 | 2 | – | –
O=C(NCc1ccccc1)c1ccc(CN([C@@H]2CCCCNC2=O)S(=O)(=O)c2ccc(Cl)cc2)cc1 | – | 7.80 | 8.05 | 2 | – | –
O=C1NCCCC[C@H]1N(Cc1csnn1)S(=O)(=O)c1ccc(Cl)cc1 | – | 5.67 | 6.12 | 3 | – | –
O=C1NCCCC[C@H]1N(Cc1ccc2nsnc2c1)S(=O)(=O)c1ccc(Cl)cc1 | 2 | 7.41 | 7.89 | 3 | – | –
O=C1NCCCC[C@H]1N(Cc1ccc2c(c1)OCCO2)S(=O)(=O)c1ccc(Cl)cc1 | 2.7 | 6.82 | 8.05 | 17 | – | –
O=C(NC1CCC1)c1ccc(CN([C@@H]2CCCCNC2=O)S(=O)(=O)c2ccc(Cl)cc2)cc1 | – | 7.31 | 7.64 | 2 | – | –
CCCNC(=O)c1ccc(CN([C@@H]2CCCCNC2=O)S(=O)(=O)c2ccc(Cl)cc2)cc1 | – | 7.59 | 7.35 | 0.5 | – | –
O=C1NCCCC[C@H]1N(Cc1nccs1)S(=O)(=O)c1ccc(Cl)cc1 | – | 5.74 | 5.74 | 1 | – | –
O=C(Nc1ccccc1)c1ccc(CN([C@@H]2CCCCNC2=O)S(=O)(=O)c2ccc(Cl)cc2)cc1 | – | 7.04 | 7.12 | 1 | – | –
O=C1NCCCC[C@H]1N(CC1CCc2ccccc2O1)S(=O)(=O)c1ccc(Cl)cc1 (some centres not stated) | – | 6.71 | 6.88 | 1 | – | –
O=C1NCCCC[C@H]1N(Cc1cnc2ncccc2c1)S(=O)(=O)c1ccc(Cl)cc1 | – | 5.98 | 6.54 | 4 | – | –

Now from value to compound, other results behind:

Ratio [1] | pIC50 [2] | pIC50 [3] | Ratio IC50 [5] | SMILES | inhibition in vivo at 100 mg/kg [4] | inhibition in vivo at 100 mg/kg [6]
– | 7.19 | 7.51 | 2 | O=C(NC1CC1)c1ccc(CN([C@@H]2CCCCNC2=O)S(=O)(=O)c2ccc(Cl)cc2)cc1 | – | –
– | 5.55 | 6.25 | 5 | Cn1c(CN([C@@H]2CCCCNC2=O)S(=O)(=O)c2ccc(Cl)cc2)cc2ccccc21 | – | –
1.8 | 7.55 | 7.82 | 2 | O=C1NCCCC[C@H]1N(Cc1ccc2nccnc2c1)S(=O)(=O)c1ccc(Cl)cc1 | 61% | 26%
– | 6.22 | 6.36 | 1 | Cc1ccc(CN([C@@H]2CCCCNC2=O)S(=O)(=O)c2ccc(Cl)cc2)o1 | – | –
– | 6.90 | 7.28 | 2 | O=C1NCCCC[C@H]1N(Cc1cnc2ccccc2c1)S(=O)(=O)c1ccc(Cl)cc1 | – | –
– | 5.03 | 5.27 | 2 | Cc1cccc(CN([C@@H]2CCCCNC2=O)S(=O)(=O)c2ccc(Cl)cc2)n1 | – | –
– | 7.18 | 7.52 | 2 | CC(C)NC(=O)c1ccc(CN([C@@H]2CCCCNC2=O)S(=O)(=O)c2ccc(Cl)cc2)cc1 | – | –
2 | 7.60 | 8.10 | 3 | O=C1NCCCC[C@H]1N(Cc1ccc2snnc2c1)S(=O)(=O)c1ccc(Cl)cc1 | 60% | 32%
– | 7.85 | 7.64 | 0.6 | O=C(NC1CCCC1)c1ccc(CN([C@@H]2CCCCNC2=O)S(=O)(=O)c2ccc(Cl)cc2)cc1 | – | –
– | – | 8.52 | – | COC(=O)c1ccc(CN([C@@H]2CCCCNC2=O)S(=O)(=O)c2ccc(Cl)cc2)cc1 | – | –
– | – | 7.92 | – | Cn1nnc2cc(CN([C@@H]3CCCCNC3=O)S(=O)(=O)c3ccc(Cl)cc3)ccc21 | – | –
– | 7.34 | 8.15 | 6 | O=C1NCCCC[C@H]1N(Cc1cc2ccccc2s1)S(=O)(=O)c1ccc(Cl)cc1 | – | –
– | – | 6.77 | – | COc1cc(CN([C@@H]2CCCCNC2=O)S(=O)(=O)c2ccc(Cl)cc2)ccc1OCCc1scnc1C | – | –
– | 7.52 | 7.92 | 2 | O=C1NCCCC[C@H]1N(Cc1cc2ccccc2o1)S(=O)(=O)c1ccc(Cl)cc1 | – | –
– | – | 5.70 | – | COc1cc(CN([C@H]2CCCCNC2=O)S(=O)(=O)c2ccc(Cl)cc2)ccc1OCCc1scnc1C | – | –
– | – | 6.77 | – | COc1ccc(CN([C@@H]2CCCCNC2=O)S(=O)(=O)c2ccc(Cl)cc2)cc1OC | – | –
– | – | 5.77 | – | COc1cc(CN(C2CCCCNC2=O)S(=O)(=O)c2ccc(Cl)cc2)ccc1OCCc1scnc1C (configuration not stated) | – | –
– | – | 7.09 | – | Cc1ccc(CN([C@@H]2CCCCNC2=O)S(=O)(=O)c2ccc(Cl)cc2)s1 | – | –

From ChEMBL document CHEMBL1777728, “Amino-caprolactam γ-secretase inhibitors showing potential for the treatment of Alzheimer's disease” (Bioorg Med Chem Lett, 2011)
